From patent US20220331257A1, “LIQUID PHARMACEUTICAL COMPOSITIONS WITH STABLE DRUG RELEASE PROFILES” (Avadel Legacy Pharmaceuticals, LLC, priority 2019, published 2022)

Legend:
[1] = Solubility of drugs in water (saturated solutions); details: saturated solution in water
[2] = Osmolality of saturated solutions of drugs in water (vapor pressure osmometer); assay type: physicochemical
[3] = Osmolality of osmotic agent solutions (external phase); assay type: physicochemical; details: for Osmolality (extrapolated): third order polynomial fit
Excerpt: In these attempts, the osmolality ratio of the composition was greater than 1 (measured at ambient temperature using a vapor pressure osmometer (model Vapro 5600 XR from ELITech/WESCOR) with a measurement range from 20 mosmol/kg to 3500 mosmol/kg).
To determine the osmolality of the external phase of the compositions, it was assumed that only the osmotic agent contributed to the external phase's osmolality because, in addition to the osmotic agent, the external phase contained only minimal amounts of the suspending agent (e.g., 0.1-0.2 wt %). Measurements were obtained experimentally up to 40 wt % sorbitol and up to 50 wt % maltitol and then extrapolated to 60 wt % using a fit with a third order polynomial form (Table 2). Measurements were also obtained for a commercially available sorbitol solution, NEOSORB® 70/70B, containing 70% of dry substance and a minimum of 74% sorbitol in the dry substance (Table 2).

[4] = Saturation of the continuous phase by the drug; assay type: physicochemical; details: continuous phase 60 wt % maltitol, 0.2 wt % xanthan gum, about pH 7.2
Procedure: A “continuous phase” or “liquid phase” as used herein, refers to the fluid or liquid phase of the suspension in which the particles are dispersed. The continuous phase may not be saturated by the drug. “Not saturated by the drug” as used herein refers to the amount of drug in the continuous phase being less than the amount at which the continuous phase is saturated with the drug at the temperature at which the saturation is measured. The temperature at which saturation is measured corresponds to the temperature at which stability is performed. In an example, saturation is measured at 30° C.

Structure (SMILES)	Solubility ([1]; 25° C.)	Osmolality of saturated solution ([2]; 25° C.)	Osmolality (experimental) ([3]; dry matter content 10% (wt %))	Osmolality (extrapolated) ([3]; dry matter content 10% (wt %))	Osmolality (experimental) ([3]; dry matter content 20% (wt %))	Osmolality (extrapolated) ([3]; dry matter content 20% (wt %))	Osmolality (experimental) ([3]; dry matter content 30% (wt %))	Osmolality (extrapolated) ([3]; dry matter content 30% (wt %))	Osmolality (experimental) ([3]; dry matter content 40% (wt %))	Osmolality (extrapolated) ([3]; dry matter content 40% (wt %))	Osmolality (extrapolated) ([3]; dry matter content 50% (wt %))	Osmolality (extrapolated) ([3]; dry matter content 60% (wt %))	other results
CC(=O)Nc1ccc(O)cc1 [Acetaminophen, acetaminophen]	14 mg/g	74 mosmol/kg											Solubility ([1]; 40° C.): 20 mg/g; Osmolality of saturated solution ([2]; 40° C.): 112 mosmol/kg
CC(=O)Oc1ccccc1C(=O)O [Aspirin, aspirin]	2.5 mg/g												
Cc1ccc(=O)n(-c2ccccc2)c1 [Pirfenidone, pirfenidone]	18 mg/g	84 mosmol/kg											
OC[C@@H](O)[C@@H](O)[C@H](O)[C@@H](O)CO [Sorbitol, sorbitol]			599 mOsm/kg sol	610 mOsm/kg	1376 mOsm/kg sol	1364 mOsm/kg	2407 mOsm/kg sol	2426 mOsm/kg	4125 mOsm/kg sol	4122 mOsm/kg	6816 mOsm/kg	10777 mOsm/kg	Osmolality (experimental) ([3]; dry matter content 5% (wt %)): 276 mOsm/kg sol; Osmolality (extrapolated) ([3]; dry matter content 5% (wt %)): 269 mOsm/kg; Osmolality (experimental) ([3]; dry matter content 15% (wt %)): 954 mOsm/kg sol; Osmolality (extrapolated) ([3]; dry matter content 15% (wt %)): 960 mOsm/kg; Osmolality (experimental) ([3]; dry matter content 25% (wt %)): 1844 mOsm/kg sol; Osmolality (extrapolated) ([3]; dry matter content 25% (wt %)): 1830 mOsm/kg
COc1ccccc1OCC(O)CO (centres unmarked) [guaifenesin]													saturation of the continuous phase by the drug [4]: 15.3 mg/g
OC[C@@H](O)[C@@H](O[C@H]1O[C@H](CO)[C@@H](O)[C@H](O)[C@H]1O)[C@H](O)[C@@H](O)CO [maltitol]			333 mOsm/kg sol	330 mOsm/kg	779 mOsm/kg sol	791 mOsm/kg	1340 mOsm/kg sol	1322 mOsm/kg	2265 mOsm/kg sol	2277 mOsm/kg	3879 mOsm/kg	6538 mOsm/kg	Osmolality (experimental) ([3]; dry matter content 50% (wt %)): 3882 mOsm/kg sol
